Reference: paper PMC10458118, “Bitter Almond Albumin ACE-Inhibitory Peptides: Purification, Screening, and Characterization In Silico, Action Mechanisms, Antihypertensive Effect In Vivo, and Stability” (Molecules, 2023)
Ends that are not written are not given here.

Experiments:
ACE [1] = experiment: ACE inhibition after simulated gastrointestinal digestion (pepsin, then pancreatin); type: in vitro ADME; settings: pepsin pH 2.00, 90 min, then pancreatin pH 7.00, 150 min, 37 °C; p > 0.5 as printed
Experimental: The N-hippuryl-L-histidyl-L-leucine method was utilized for the determination of the inhibiting capacity of BAAH peptides toward ACE [30]. In a glass test tube, 0.2 mL of ACE solution (dissolved in boric acid buffer, pH 8.3) and 0.2 mL of BAAH peptide aqueous solution (1 mg·mL^−1) were added. The mixture in the glass tube was shaken in a water bath at 143 r·min^−1 and 37 °C. Ten minutes later, 0.65 mL of N-hippuryl-L-histidyl-L-leucine (5 mmol·L^−1, dissolved in boric acid buffer, pH 8.3) was added. After continuously shaking for 1 h, 0.75 mL of dilute hydrochloric acid was added into the tube. Next, hippuric acid produced in the reaction solution was extracted by ethyl acetate (1.25 mL). The hippuric acid solution (the supernatant) was sucked out with a pipette (DG-1, Dragon TopPette, Beijing, China) and heated at 70 °C to evaporate the ethyl acetate. The residual hippuric acid was resolved in distilled water, and its absorbance at 228 nm was read. The inhibition capacity of BAAH peptides against ACE was the percentage of the absorbance reduction value at 228 nm to the absorbance of the control group (without BAAH peptide). The concentration of BAAH peptides was defined as IC50 when the activity of ACE was inhibited by half. Captopril was used as the positive control. […]

ACE [2] = target: T1, ACE (Oryctolagus cuniculus, UniProt P12822); experiment: ACE inhibition, N-hippuryl-L-histidyl-L-leucine method; type: biochemical; settings: synthesized peptide; HHL 5 mmol·L^−1, boric acid buffer pH 8.3, 37 °C, 10 min pre-incubation, 1 h reaction, absorbance at 228 nm; read-out: Inhibitory effect against ACE (IC50)
T1 construct: purchased Sigma (St. Louis, MO, USA)
T1 sequence (P12822 34-1310): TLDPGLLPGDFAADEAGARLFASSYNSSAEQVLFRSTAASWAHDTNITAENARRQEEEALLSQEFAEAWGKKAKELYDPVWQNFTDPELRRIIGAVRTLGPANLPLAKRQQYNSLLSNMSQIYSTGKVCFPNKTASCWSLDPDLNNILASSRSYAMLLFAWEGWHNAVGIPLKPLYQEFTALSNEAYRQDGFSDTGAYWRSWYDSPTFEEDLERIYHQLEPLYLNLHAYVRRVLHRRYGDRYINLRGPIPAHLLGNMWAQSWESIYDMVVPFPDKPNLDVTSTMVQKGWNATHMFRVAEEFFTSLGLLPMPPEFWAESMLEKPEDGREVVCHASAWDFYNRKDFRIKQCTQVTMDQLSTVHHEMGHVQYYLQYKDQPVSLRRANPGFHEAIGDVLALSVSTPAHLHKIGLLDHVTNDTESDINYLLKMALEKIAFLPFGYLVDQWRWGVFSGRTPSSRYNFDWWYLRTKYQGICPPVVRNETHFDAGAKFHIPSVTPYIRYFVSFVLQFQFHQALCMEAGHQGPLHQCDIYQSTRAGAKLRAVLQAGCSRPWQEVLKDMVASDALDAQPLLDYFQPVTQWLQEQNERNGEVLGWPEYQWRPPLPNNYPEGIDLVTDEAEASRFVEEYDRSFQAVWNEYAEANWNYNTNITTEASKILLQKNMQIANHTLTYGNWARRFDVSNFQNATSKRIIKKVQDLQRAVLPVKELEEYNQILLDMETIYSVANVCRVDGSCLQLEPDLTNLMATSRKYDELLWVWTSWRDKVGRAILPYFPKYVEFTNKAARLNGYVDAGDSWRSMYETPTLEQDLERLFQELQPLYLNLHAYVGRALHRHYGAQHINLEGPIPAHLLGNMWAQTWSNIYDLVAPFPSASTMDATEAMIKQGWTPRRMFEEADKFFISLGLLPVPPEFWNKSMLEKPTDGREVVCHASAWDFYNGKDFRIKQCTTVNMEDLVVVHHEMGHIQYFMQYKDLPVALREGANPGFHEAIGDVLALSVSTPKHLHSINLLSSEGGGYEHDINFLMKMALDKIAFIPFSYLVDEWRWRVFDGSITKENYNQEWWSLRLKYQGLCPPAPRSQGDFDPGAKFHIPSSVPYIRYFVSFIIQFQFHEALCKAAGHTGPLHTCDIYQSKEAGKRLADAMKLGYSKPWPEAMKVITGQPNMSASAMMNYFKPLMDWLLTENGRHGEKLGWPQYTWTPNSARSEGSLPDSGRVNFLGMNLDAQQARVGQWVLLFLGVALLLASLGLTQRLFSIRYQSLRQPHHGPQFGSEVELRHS
Experimental: The N-hippuryl-L-histidyl-L-leucine method was utilized for the determination of the inhibiting capacity of BAAH peptides toward ACE [30]. In a glass test tube, 0.2 mL of ACE solution (dissolved in boric acid buffer, pH 8.3) and 0.2 mL of BAAH peptide aqueous solution (1 mg·mL^−1) were added. The mixture in the glass tube was shaken in a water bath at 143 r·min^−1 and 37 °C. Ten minutes later, 0.65 mL of N-hippuryl-L-histidyl-L-leucine (5 mmol·L^−1, dissolved in boric acid buffer, pH 8.3) was added. After continuously shaking for 1 h, 0.75 mL of dilute hydrochloric acid was added into the tube. Next, hippuric acid produced in the reaction solution was extracted by ethyl acetate (1.25 mL). The hippuric acid solution (the supernatant) was sucked out with a pipette (DG-1, Dragon TopPette, Beijing, China) and heated at 70 °C to evaporate the ethyl acetate. The residual hippuric acid was resolved in distilled water, and its absorbance at 228 nm was read. The inhibition capacity of BAAH peptides against ACE was the percentage of the absorbance reduction value at 228 nm to the absorbance of the control group (without BAAH peptide). The concentration of BAAH peptides was defined as IC50 when the activity of ACE was inhibited by half.

[3] = Zinc-chelating ability after simulated gastrointestinal digestion (pepsin, then pancreatin); type: in vitro ADME; settings: 5 mg/mL peptide; pepsin pH 2.00, 90 min, then pancreatin pH 7.00, 150 min, 37 °C; then 4-(β-Pyridinazo)-resorcinol method
Experimental: (§1) In short, 0.75 mmol·L^−1 of ZnSO4 (dissolved in 0.2 mmol·L^−1 of HEPES-KOH buffer) and 10 mmol·L^−1 of 1,4-Dithiothreitol were added into a glass tube. The tube was incubated in the THZ-82AB thermostatic oscillator (195 r·min^−1 and 25 °C). Five minutes later, the zinc concentration in the glass tube was measured and read as C0. Next, the BAAH peptides aqueous solution (0.8 mg·mL^−1) was added and the mixture was continuously shaken for another 15 min. Then, the zinc concentration in the glass tube was measured and read as Ct. The chelating ability of BAAH peptides toward zinc ions was calculated as follows, and ethylenediamine tetraacetic acid (EDTA) was used as the positive control. (1) Chelating ability towards zinc ions (mg·g^−1) = (C0−Ct) × V/m where V and m represent the volume of the reaction solution (mL) and the mass weight of BAAH peptides (g), respectively.
In a stirring (115 r·min^−1) water bath at 37 °C, the BAAH peptides’ aqueous solution (5 mg/mL, 10 mL) was added into a glass test tube, and the pH value was adjusted to 2.00 ± 0.05 with dilute hydrochloric acid solution (0.5 mol·L^−1). […] Afterward, both the chelating ability toward zinc ion, and the inhibition activity of BAAH peptides against ACE were determined using the 4-(β-Pyridinazo)-resorcinol method and N-hippuryl-L-histidyl-L-leucine method, respectively. […]

[4] = Chelating ability toward zinc ions, 4-(β-Pyridinazo)-resorcinol method; type: physicochemical; settings: 0.75 mmol·L^−1 ZnSO4 in HEPES-KOH buffer, peptide solution 0.8 mg·mL^−1, 15 min, 25 °C; repeated three or more times
Experimental: as §1

ACE [5] = settings: cited from earlier work; for ACE-inhibitory activity in words: 30 (ADMIET, QTPHQ, ELHPQ), ref 27 (RTVFDGEL, RADVFNPR); for IC50: read-out: Inhibitory capacity on ACE (IC50)
Excerpt: The results of ultra-high-performance liquid chromatography and quantum-ultra mass spectrometric determination of BAAH-4-C are shown in Table 1 and Figure 4. Five oligopeptides, […]([…]), Lys-Thr-Glu-Thr-Gln-Pro (KTETQP), […]([…]), […]([…]), and Thr-Cys-Gly-Ala-Ser (TCGAS) were obtained. However, only […] offered potential antihypertension based on the vector machine software score (1.35) calculated by the database AHTpin [28]. […] As shown in the Lineweaver–Burk diagram of ACE, the Km increased with the increasing […] dose, but the maximum velocity (Vmax) decreased when the […] dose increased, which was the typical effect of noncompetitive inhibitors. Peptides such as […] an ... || To the best of our knowledge, this is the first study to simultaneously investigate the capacities of bitter almond albumin peptides to inhibit ACE and bind with zinc ions. Previous studies evidenced that thermolysin could quickly cleave the amide bonds linked with hydrophobic amino acid residues, with the released hydrophobic amino acid residues playing an important role in ACE inhibition; whereas papain cleaves multiple sites of polypeptide chains, especially peptide bonds linking with acidic amino acid residues (Glu and Asp), Arg, and aromatic amino acids which was helpful for the release o ... || (+ 2 further places)

SHR = settings: cited from earlier work
Excerpt: Zinc chelation may change the coordination of peptides toward ACE, resulting in lower ACE-inhibitory activity and antihypertension.

Q: Which “Zinc-chelating ability and ACE-inhibitory capacity after hydrolysis of gastrointestinal proteases, versus untreated peptide” value (ACE [1]) does the source give for RPPSEDEDQE here?
A: Its value is “not significantly reduced”.

Q: What about the IC50 (ACE [2]) of the same substance?
A: Its IC50 is 206 µM.

Q: And the “Chelating ability toward zinc ions after gastrointestinal digestion” value [3]?
A: The value was 18.55 ± 0.95 mg/g.

Q: For KTETQP [KTETQP], which “Chelating ability toward zinc ions” value [4] is on record?
A: Its value is 19.30 ± 1.46 e mg·g^−1.

Q: Which ACE inhibitory pattern (ACE [5]) does the source give for “HLNVVHEN [peptide identified from walnut protein]” here?
A: Its ACE inhibitory pattern is “noncompetitive”.

Q: Which “ACE-inhibitory activity in words” value (ACE [5]) does the source give for “ADMIET [peptide identified in Lepidium meyenii]” here?
A: The value was “high ACE-inhibitory activities”.

Q: Which results are given for “PGSGCAGTDL [called Mung bean-derived in b48]”?
A: ACE inhibitory pattern (ACE [5]): noncompetitive; Antihypertensive effects on SHR (SHR): dose-dependent antihypertensive effects; Effect of the addition of zinc ions on antihypertension (SHR): reduce

Q: With “LVRYYLLVR [peptide from hazelnut protein]” as the substance, how does the ACE inhibitory pattern (ACE [5]) read?
A: Its ACE inhibitory pattern is “noncompetitive”.

Q: For “RADVFNPR [peptide derived from palm kernel glutelin-1]”, which “ACE-inhibitory activity in words” value (ACE [5]) is on record?
A: Its value is “excellent ability to restrain ACE”.

Q: With “FMRWRDRFL [peptide isolated from tombul hazelnut]” as the substance, how does the IC50 (ACE [5]) read?
A: The IC50 was 260 µM.

Q: For KYPHVF [symbiotic peptide], which “ACE inhibition ability after zinc chelation” value (ACE [5]) is on record?
A: The value was “not significantly reduced”.

Q: For LYSPLLKYFD [peptide from rice bran], which “Antihypertensive effects on SHR” value (SHR) is on record?
A: The value was “dose-dependent antihypertensive effects”.

Q: And the “Effect of the addition of zinc ions on antihypertension” value (SHR)?
A: Its value is “reduce”.

Q: With “EKTFLLYSCPHR [peptide identified from camel milk]” as the substance, how does the IC50 (ACE [5]) read?
A: The IC50 was 312 µM.

Q: Which “ACE-inhibitory activity in words” value (ACE [5]) does the source give for “QTPHQ [peptide derived from canary seeds]” here?
A: Its value is “high ACE-inhibitory activities”.

Q: With QPPAAAAAAGAG as the substance, how does the “Chelating ability toward zinc ions” value [4] read?
A: The value was 1.14 ± 0.01 g mg·g^−1.

Q: With “ELHPQ [peptide derived from canary seeds]” as the substance, how does the “ACE-inhibitory activity in words” value (ACE [5]) read?
A: Its value is “high ACE-inhibitory activities”.

Q: With GYGYNY [camellia peptide] as the substance, how does the “Antihypertensive effects on SHR” value (SHR) read?
A: The value was “dose-dependent antihypertensive effects”.

Q: What about the “Effect of the addition of zinc ions on antihypertension” value (SHR) of the same substance?
A: Its value is “reduce”.

Q: With “RTVFDGEL [peptide derived from palm kernel glutelin-1]” as the substance, how does the “ACE-inhibitory activity in words” value (ACE [5]) read?
A: Its value is “excellent ability to restrain ACE”.
